Source: patent US20100105054A1, “GENE EXPRESSION IN DUCHENNE MUSCULAR DYSTROPHY” (CINCINNATI CHILDREN'S HOSPITAL MEDICAL CENTER, priority 2008, published 2010)
“Also recorded” adds a separate entry of the source. Like-named read-outs stand apart in the source and are kept apart here.

What was measured:
[1] = tested on: individuals with DMD; conditions: cited from earlier work; for muscle function and strength in individuals with DMD: humans with DMD
[2] = tested on: myasthenia gravis; conditions: compared to prednisone; cited from earlier work
[3] = tested on: gene expression in peripheral blood; assay: Whole genome microarray of peripheral whole blood RNA, DMD administered prednisone or deflazacort vs DMD not administered steroid; assay type: in vivo, human; conditions: for KFL10 expression: individuals administered prednisone, deflazacort, or both vs DMD not administered any agent; for KFL10 expression / CD163 nucleic acid expression / FKBP5 expression / expression of genes in the chondroitin sulfate biosynthesis pathway / haptoglobin nucleic acid expression / lactotransferrin expression / lipocalin expression: blood; for CD163 nucleic acid expression / FKBP5 expression / expression of genes in the chondroitin sulfate biosynthesis pathway / haptoglobin nucleic acid expression / lactotransferrin expression / lipocalin expression: pooled deflazacort or prednisone group vs DMD not administered; for genes with significantly different expression: pooled group administered either prednisone or deflazacort vs DMD not administered, fold change >|1.5|, unpaired t-test, p<=0.05; for genes with down-regulated expression levels / genes with up-regulated expression levels: pooled prednisone or deflazacort group vs DMD not administered, of the 524 genes
Procedure: Individuals with DMD were evaluated and had been diagnosed by a single board-certified pediatric neurologist. The diagnosis of DMD was based in part upon clinical history, examination findings, and selected muscle biopsies and was confirmed by molecular diagnostic testing.
(§1) Of the 34 individuals with DMD, 14 were administered either prednisone (PRED, n=6) or deflazacort, an oxazoline derivative of prednisolone (DEFL, n=8) at the time blood samples for gene expression evaluation were obtained. The mean duration of administration of either prednisone or deflazacort for these 14 individuals was 43.9 months. Of the 34 individuals with DMD, 20 individuals had not been administered either prednisone or deflazacort at the time blood samples for gene expression evaluation were obtained.
(§2) Sample processing and array hybridization, probe-level data analysis, and statistical analysis were identical to Example 1.

[4] = tested on: gene expression in peripheral blood; assay: Whole genome microarray of peripheral whole blood RNA, DMD administered deflazacort vs DMD administered prednisone; assay type: in vivo, human
Procedure: as §1, §2

[5] = tested on: mdx mouse; conditions: cited from earlier work; for muscle strength: dystrophin deficient mdx mice
[6] = tested on: dystrophin deficient Caenorhabditis elegans; conditions: dystrophin deficient C. elegans; cited from earlier work
[7] = deflazacort compared to prednisone, of the 508 genes
[8] = DMD individuals receiving deflazacort
[9] = individuals with DMD administered prednisone, blood

Structure (SMILES)	muscle function and strength in individuals with DMD [1]	KFL10 expression [3]	CD163 nucleic acid expression [3]	FKBP5 expression [3]	expression of genes in the chondroitin sulfate biosynthesis pathway [3]	haptoglobin nucleic acid expression [3]	lactotransferrin expression [3]	lipocalin expression [3]	genes with significantly different expression [3]	genes with down-regulated expression levels [3]	genes with up-regulated expression levels [3]	muscle strength [5]	CD-11 inflammatory cells in mdx muscle [5]	muscle degeneration [6]	further results
Cn1cnc([N+](=O)[O-])c1Sc1ncnc2nc[nH]c12 [azathioprine]	does not improve DMD; also recorded: no improvement														immunosuppressant effectiveness [2]: less effective immunosuppressant
CC(=O)OCC(=O)[C@@]12N=C(C)O[C@@H]1C[C@H]1[C@@H]3CCC4=CC(=O)C=C[C@]4(C)[C@H]3[C@@H](O)C[C@@]12C [deflazacort]	improved muscle function and strength	up-regulated	up-regulated expression levels	up-regulated expression levels	up-regulated expression levels	up-regulated expression levels	increased expression levels	increased expression levels	524 genes	127 genes	397 genes				genes significantly different ([4]; DMD administered deflazacort compared to DMD administered prednisone, fold change >=|1.5|, unpaired t-test, p<=0.05, peripheral blood): 508 genes; changes in gene expression ([4]; deflazacort compared to prednisone): fewer changes in gene expression; expression of retinoic acid receptor a (RARa) ([4]; deflazacort compared to prednisone, blood): significantly up-regulated; genes significantly down-regulated [4, 7]: 478 genes; genes significantly up-regulated [4, 7]: 30 genes; side effects [1, 8]: fewer side effects; weight gain [1, 8]: less weight gain
C[C@]12C=CC(=O)C=C1CC[C@@H]1[C@@H]2[C@@H](O)C[C@@]2(C)[C@H]1CC[C@]2(O)C(=O)CO [prednisolone]	improve function											improve muscle strength	decrease	reduce muscle degeneration	
C[C@]12C=CC(=O)C=C1CC[C@@H]1[C@@H]2C(=O)C[C@@]2(C)[C@H]1CC[C@]2(O)C(=O)CO [prednisone]	improved muscle function and strength	up-regulated	up-regulated expression levels	up-regulated expression levels	up-regulated expression levels	up-regulated expression levels	increased expression levels	increased expression levels	524 genes	127 genes	397 genes	improve muscle strength	decrease	reduce muscle degeneration	interleukin 1 beta expression [4, 9]: up-regulated; interleukin 1 receptor antagonist expression [4, 9]: up-regulated; interleukin 6 receptor expression [4, 9]: up-regulated; expression of genes related to lipid metabolism, particularly in adipose tissue ([4]; prednisone compared to deflazacort, blood): up-regulated; muscle function and strength in individuals with DMD ([1]; listed as Prednisone): improve function; KFL10 expression in the mdx mouse ([5]; following six weeks of prednisone administration): up-regulated
